Experimental data as given in patent publication US4230719A, “Novel 2-[4-(3-methyl-2-thienyl)phenyl]propionic acid and pharmaceutically acceptable salt thereof and method for treating symptoms of inflammation and pain” (Toyama Chemical Co., Ltd., priority 1977, dated 1980).
Where two headings read alike, the source gives them in different places.

Experiments:
[1] = system: threshold value of pain due to pressure stimuli (tail); details: for Analgesic effect: 100% = threshold raised by 160 g
[2] = system: phenylbenzoquinone writhing; assay: Analgesic activity, phenylbenzoquinone method in mouse; type: in vivo, mouse (ddY strain, male); details: for Frequency of writhing, mean ± S.E.: during 10 minutes; for ED50: mouse, read-out: ED50
Protocol: (i) Phenylbenzoquinone method in mouse
The test compound was orally administered to each ddY strain male mouse (weighing 22±2 g; 8 mice per group). […] The frequency of writhing during 10 minutes from 5-minutes after the injection of phenylbenzoquinone was measured and compared with that of a control group to which a 0.5% Tween 80 solution was administered. The percent inhibition was calculated by the following equation: [formula]

[3] = system: Carrageenin-induced edema; assay: Carrageenin-induced edema; type: in vivo, rat (Donryu strain, male); details: Rattus norvegicus, po, mean in 5 hours, read-out: Inhibitory percent of swelling; for inhibition in vivo at 5 mg/kg: 5 mg/kg p.o.; for inhibition in vivo at 15 mg/kg: 15 mg/kg p.o.
Protocol: (iii) Carrageenin-induced edema
Each of the 6 Donryu strain male rats per group (each weighing about 140 g), which had been fasted overnight, was orally loaded with 4 ml of water and, after 30 minutes, the test compound was orally administered thereto. Thirty minutes thereafter, a 1%(Wt/V) solution of carrageenin in physiological saline was subcutaneously injected into the subplantar region of the left hind paw. At a time interval of one hour, starting from the end of the first hour till the end of the fifth hour after injection of carrageenin, the paw volume was measured by means of a manometer and pressure transducer. By comparison with the percent increase in swelling of the control group of rats to which a 0.5%(V/V) solution of Tween 80 had been administered, the mean inhibitory percent in 5 hours of swelling was calculated by the following equation: [formula]

Vascular permeability = Vascular permeability in mice (Whittle's method); type: in vivo, mouse (ddY strain, male); details: for Inhibition: dye leakage
Protocol: (i) Vascular permeability in mice (Whittle's method)
The test compound was orally administered to each ddY strain male mouse (weighing each about 20 g). After 20 minutes, 0.1 ml/10 g of a 4%(Wt/V) solution of Pontamine Sky Blue in physiological saline was intravenously injected and 10 minutes thereafter 0.1 ml/10 g of a 0.7%(V/V) solution of acetic acid in physiological saline was injected intraperitoneally. After 30 minutes, the mice were killed by suffocation with chloroform. After immediate laparotomy, the dye leaked into the peritoneal cavity was washed out with distilled water. The washings were made up with water to 30 ml and the absorbance at 620 mμ was measured. The amount of leaked dye per 20 g of mouse weight was compared.

in vivo = details: rat, po
[4] = Mus musculus, po, 10 min, writhing, 40 mg/kg p.o.

CC(=O)Oc1ccccc1C(=O)O [Aspirin]
Analgesic effect ([1]; 200 mg/kg p.o.): 25%
Analgesic effect ([1]; 800 mg/kg p.o.): 53%
ED50 ([1]; Mus musculus, po): 710 mg/kg

CCc1ccsc1-c1ccc(C(C)C(=O)O)cc1 (stereo not shown) [Compound C1]
Frequency of writhing, mean ± S.E. ([2]; 10 mg/kg p.o.): 23.6 ± 5.0
Frequency of writhing, mean ± S.E. ([2]; 20 mg/kg p.o.): 23.7 ± 4.4
Frequency of writhing, mean ± S.E. ([2]; 40 mg/kg p.o.): 23.1 ± 3.9
inhibition in vivo at 10 mg/kg ([2]; Mus musculus, po, 10 min, writhing, 10 mg/kg p.o., read-out: Inhibition): 0%
inhibition in vivo at 20 mg/kg ([2]; Mus musculus, po, 10 min, writhing, 20 mg/kg p.o., read-out: Inhibition): -0.4%
inhibition in vivo at 40 mg/kg [2, 4]: 2.1%
ED50 ([2]; po): > 50 mg/kg
inhibition in vivo at 5 mg/kg [3]: 9.3%
Dye leakage (P.S.B.) mean ± S.E. (Vascular permeability; 10 mg/kg p.o.): 316.9 ± 29.0 μg/20g
Dye leakage (P.S.B.) mean ± S.E. (Vascular permeability; 20 mg/kg p.o.): 245.9 ± 15.4 μg/20g
Inhibition (Vascular permeability; 10 mg/kg p.o.): 18.0%
Inhibition (Vascular permeability; 20 mg/kg p.o.): 36.4%
ED30 (Vascular permeability; po, mouse, read-out: ED30): 16 mg/kg
LD50 (in vivo): > 400 mg/kg

CCCc1ccsc1-c1ccc(C(C)C(=O)O)cc1 (stereo not shown) [Compound C4]
Frequency of writhing, mean ± S.E. ([2]; 40 mg/kg p.o.): 24.0 ± 2.6
inhibition in vivo at 40 mg/kg [2, 4]: -1.7%
ED50 ([2]; po): > 50 mg/kg
inhibition in vivo at 5 mg/kg [3]: -7.2%
inhibition in vivo at 15 mg/kg [3]: -2.7%

Cc1csc(-c2ccc(C(C)C(=O)O)cc2)c1 (stereo not shown) [Compound C5]
Frequency of writhing, mean ± S.E. ([2]; 40 mg/kg p.o.): 23.4 ± 1.9
inhibition in vivo at 40 mg/kg [2, 4]: 0.8%
ED50 ([2]; po): > 50 mg/kg
inhibition in vivo at 3 mg/kg ([3]; 3 mg/kg p.o.): -25.7%
inhibition in vivo at 10 mg/kg ([3]; 10 mg/kg p.o.): 0.7%

Cc1ccc(-c2ccc(C(C)C(=O)O)cc2)s1 (stereo not shown) [Compound C6]
Frequency of writhing, mean ± S.E. ([2]; 40 mg/kg p.o.): 18.2 ± 2.8
inhibition in vivo at 40 mg/kg [2, 4]: 22.9%
ED50 ([2]; po): > 50 mg/kg
inhibition in vivo at 5 mg/kg [3]: 19.1%
inhibition in vivo at 15 mg/kg [3]: 31.4%

Cc1cc(-c2ccc(C(C)C(=O)O)cc2)sc1C (stereo not shown) [Compound C7]
Frequency of writhing, mean ± S.E. ([2]; 40 mg/kg p.o.): 19.1 ± 3.8
inhibition in vivo at 40 mg/kg [2, 4]: 19.1%
ED50 ([2]; po): > 50 mg/kg
inhibition in vivo at 5 mg/kg [3]: -21.6%
inhibition in vivo at 15 mg/kg [3]: 15.1%
